Legend:
[1] = DRUGMATRIX: Tumor Necrosis Factor (TNF), Non-Selective radioligand binding (ligand: [125I] TNF-alpha); assay type: cell membranes, Membrane; conditions: u-937; Not Active = under 50% inhibition at 10 µM
[2] = DRUGMATRIX: GABAA, Flunitrazepam, Central radioligand binding (ligand: [3H] Flunitrazepam); assay type: cell membranes, Rattus norvegicus, Wistar, Brain, Membrane; conditions: Not Active = under 50% inhibition at 10 µM
[3] = biological target: T1, Polyunsaturated fatty acid lipoxygenase ALOX15 (Oryctolagus cuniculus, UniProt P12530); experiment: biochemical; assay type: tissue-based, Reticulocytes; conditions: reticulocytes;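 also: inhibition of 15-lipoxygenase enzyme activity measured with linoleic acid as the substrate; in other assays of this panel Not Active means under 50% inhibition at 10 µM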
T1 sequence (P12530 whole entry): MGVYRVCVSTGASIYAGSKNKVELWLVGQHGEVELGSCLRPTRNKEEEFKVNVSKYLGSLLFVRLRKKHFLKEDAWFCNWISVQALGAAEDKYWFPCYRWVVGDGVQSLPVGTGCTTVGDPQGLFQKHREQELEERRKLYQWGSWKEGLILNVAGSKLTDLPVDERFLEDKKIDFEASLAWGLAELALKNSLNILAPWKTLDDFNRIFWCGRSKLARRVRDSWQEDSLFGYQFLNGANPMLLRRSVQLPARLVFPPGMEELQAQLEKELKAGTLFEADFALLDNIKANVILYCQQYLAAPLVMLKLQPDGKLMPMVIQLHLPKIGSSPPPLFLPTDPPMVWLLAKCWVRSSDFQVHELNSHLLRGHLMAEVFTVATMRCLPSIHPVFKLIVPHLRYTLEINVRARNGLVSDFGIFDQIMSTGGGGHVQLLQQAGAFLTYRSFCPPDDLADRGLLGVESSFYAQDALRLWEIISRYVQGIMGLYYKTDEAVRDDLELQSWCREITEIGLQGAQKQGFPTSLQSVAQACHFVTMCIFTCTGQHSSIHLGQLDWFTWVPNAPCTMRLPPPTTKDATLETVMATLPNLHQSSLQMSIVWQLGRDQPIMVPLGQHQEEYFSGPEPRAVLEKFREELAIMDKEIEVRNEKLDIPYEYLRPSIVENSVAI

Cannabinoid receptor 1 = Cannabinoid receptor 1 (Homo sapiens, UniProt P21554); assay type: cell membranes, Membrane; conditions: chem-1; also: in other assays of this panel Not Active means under 50% inhibition at 10 µM
Sequence of Cannabinoid receptor 1 (P21554 whole entry): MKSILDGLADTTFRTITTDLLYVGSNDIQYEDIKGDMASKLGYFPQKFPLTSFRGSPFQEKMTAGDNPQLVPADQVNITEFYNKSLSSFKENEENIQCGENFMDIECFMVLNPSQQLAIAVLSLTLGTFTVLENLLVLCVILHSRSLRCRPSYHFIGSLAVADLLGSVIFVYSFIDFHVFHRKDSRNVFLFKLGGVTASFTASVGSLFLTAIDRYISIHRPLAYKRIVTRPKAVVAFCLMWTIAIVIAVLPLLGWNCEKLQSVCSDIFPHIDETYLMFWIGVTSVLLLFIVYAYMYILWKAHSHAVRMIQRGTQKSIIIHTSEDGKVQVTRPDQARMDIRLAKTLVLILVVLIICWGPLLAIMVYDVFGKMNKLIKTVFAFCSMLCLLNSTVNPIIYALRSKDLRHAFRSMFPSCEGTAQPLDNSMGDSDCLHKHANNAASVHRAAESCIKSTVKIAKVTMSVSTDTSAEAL

[4] = biological target: Mitogen-activated protein kinase 3 (Homo sapiens, UniProt P27361); experiment: DRUGMATRIX: Protein Serine/Threonine Kinase, ERK1 enzyme inhibition (substrate: Myelin Basic Protein); parameters: species or system Escherichia coli; conditions: Not Active = under 50% inhibition at 10 µM
Sequence of Mitogen-activated protein kinase 3 (P27361 whole entry): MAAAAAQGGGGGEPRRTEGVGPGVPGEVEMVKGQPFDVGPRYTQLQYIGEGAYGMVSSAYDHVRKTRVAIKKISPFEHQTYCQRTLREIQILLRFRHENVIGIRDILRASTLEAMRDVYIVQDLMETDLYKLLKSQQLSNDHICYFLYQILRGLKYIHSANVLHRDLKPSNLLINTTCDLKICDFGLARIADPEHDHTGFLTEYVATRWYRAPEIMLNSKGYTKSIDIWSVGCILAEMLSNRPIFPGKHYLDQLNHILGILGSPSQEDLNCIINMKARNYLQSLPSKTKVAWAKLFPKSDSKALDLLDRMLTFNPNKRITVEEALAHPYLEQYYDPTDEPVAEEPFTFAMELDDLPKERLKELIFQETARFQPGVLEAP

[5] = biological target: T2, Type-2 angiotensin II receptor (Homo sapiens, UniProt P50052); assay type: cell-based; conditions: cho-k1; also: in other assays of this panel Not Active means under 50% inhibition at 10 µM
T2 sequence (P50052 whole entry): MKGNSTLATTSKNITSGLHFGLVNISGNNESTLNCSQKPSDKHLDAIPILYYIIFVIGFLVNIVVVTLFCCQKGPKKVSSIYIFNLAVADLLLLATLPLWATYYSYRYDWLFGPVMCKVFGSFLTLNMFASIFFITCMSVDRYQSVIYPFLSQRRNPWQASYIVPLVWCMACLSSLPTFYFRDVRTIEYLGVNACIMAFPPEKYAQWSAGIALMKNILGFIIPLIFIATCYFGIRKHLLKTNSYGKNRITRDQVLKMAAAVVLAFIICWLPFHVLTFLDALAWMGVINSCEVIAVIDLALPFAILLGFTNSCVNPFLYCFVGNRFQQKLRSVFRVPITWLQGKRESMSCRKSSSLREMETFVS

Caspase-1 = biological target: T3, Caspase-1 (Homo sapiens, UniProt P29466); parameters: species or system Escherichia coli;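 also: Caspase-1 enzyme inhibition assay with a peptide substrate; in other assays of this panel Not Active means under 50% inhibition at 10 µM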
T3 sequence (P29466 whole entry): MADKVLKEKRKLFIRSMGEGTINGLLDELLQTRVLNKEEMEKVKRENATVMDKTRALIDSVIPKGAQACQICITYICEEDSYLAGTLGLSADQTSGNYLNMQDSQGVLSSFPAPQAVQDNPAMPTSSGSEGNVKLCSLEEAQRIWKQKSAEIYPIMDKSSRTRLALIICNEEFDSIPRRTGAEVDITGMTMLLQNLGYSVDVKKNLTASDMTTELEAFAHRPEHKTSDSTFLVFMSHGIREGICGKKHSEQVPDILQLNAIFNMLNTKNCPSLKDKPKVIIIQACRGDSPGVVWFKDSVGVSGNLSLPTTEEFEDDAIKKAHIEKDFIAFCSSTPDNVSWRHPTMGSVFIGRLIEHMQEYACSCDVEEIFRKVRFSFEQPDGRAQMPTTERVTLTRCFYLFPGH

[6] = DRUGMATRIX: ATPase, Na+/K+ enzyme inhibition (substrate: ATP); assay type: tissue-based, Sus scrofa, Heart; conditions: Not Active = under 50% inhibition at 10 µM
[7] = DRUGMATRIX: Calcium Channel Type L, Benzothiazepine radioligand binding (ligand: [3H] Diltiazem); assay type: cell membranes, Rattus norvegicus, Wistar, Brain, Membrane; conditions: Not Active = under 50% inhibition at 10 µM
[8] = biological target: Epidermal growth factor receptor (Homo sapiens, UniProt P00533); experiment: DRUGMATRIX: Protein Tyrosine Kinase, EGF Receptor enzyme inhibition (substrate: Poly(Glu:Tyr)); assay type: cell-based, Insect cells; conditions: insect cells; Not Active = under 50% inhibition at 10 µM
Sequence of Epidermal growth factor receptor (P00533 whole entry): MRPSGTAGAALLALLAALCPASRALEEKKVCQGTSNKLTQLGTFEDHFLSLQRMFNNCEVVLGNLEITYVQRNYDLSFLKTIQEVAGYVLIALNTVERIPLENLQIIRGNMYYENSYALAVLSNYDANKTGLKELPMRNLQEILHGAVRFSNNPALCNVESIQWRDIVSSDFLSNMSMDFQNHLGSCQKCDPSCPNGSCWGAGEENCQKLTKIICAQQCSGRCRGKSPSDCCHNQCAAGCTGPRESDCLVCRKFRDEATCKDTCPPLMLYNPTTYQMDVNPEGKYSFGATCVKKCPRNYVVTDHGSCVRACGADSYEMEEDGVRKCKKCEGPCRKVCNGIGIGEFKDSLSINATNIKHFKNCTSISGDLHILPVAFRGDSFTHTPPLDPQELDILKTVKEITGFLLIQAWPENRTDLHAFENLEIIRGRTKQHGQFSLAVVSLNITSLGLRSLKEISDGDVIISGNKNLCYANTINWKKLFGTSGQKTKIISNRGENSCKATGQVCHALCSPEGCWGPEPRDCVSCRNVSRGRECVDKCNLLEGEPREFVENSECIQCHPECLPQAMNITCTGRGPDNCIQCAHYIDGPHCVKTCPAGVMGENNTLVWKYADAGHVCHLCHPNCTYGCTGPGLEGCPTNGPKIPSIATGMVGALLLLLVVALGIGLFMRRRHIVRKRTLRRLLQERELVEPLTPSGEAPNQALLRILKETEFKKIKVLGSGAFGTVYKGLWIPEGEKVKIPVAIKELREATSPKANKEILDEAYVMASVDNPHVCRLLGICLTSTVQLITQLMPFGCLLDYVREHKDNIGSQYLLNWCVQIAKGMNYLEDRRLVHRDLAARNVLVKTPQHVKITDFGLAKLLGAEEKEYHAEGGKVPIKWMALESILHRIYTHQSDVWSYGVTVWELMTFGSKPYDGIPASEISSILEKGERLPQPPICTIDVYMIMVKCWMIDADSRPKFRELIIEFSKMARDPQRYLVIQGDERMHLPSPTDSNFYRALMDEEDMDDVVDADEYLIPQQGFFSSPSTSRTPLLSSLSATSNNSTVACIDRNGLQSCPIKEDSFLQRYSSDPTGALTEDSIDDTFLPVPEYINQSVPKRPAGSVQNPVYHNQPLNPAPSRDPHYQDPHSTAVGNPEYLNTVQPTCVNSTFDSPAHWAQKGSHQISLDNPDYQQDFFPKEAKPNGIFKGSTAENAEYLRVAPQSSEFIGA

Substance-P receptor = Substance-P receptor (Homo sapiens, UniProt P25103); assay type: cell membranes, CHO, Membrane; conditions: cho; also: in other assays of this panel Not Active means under 50% inhibition at 10 µM
Sequence of Substance-P receptor (P25103 whole entry): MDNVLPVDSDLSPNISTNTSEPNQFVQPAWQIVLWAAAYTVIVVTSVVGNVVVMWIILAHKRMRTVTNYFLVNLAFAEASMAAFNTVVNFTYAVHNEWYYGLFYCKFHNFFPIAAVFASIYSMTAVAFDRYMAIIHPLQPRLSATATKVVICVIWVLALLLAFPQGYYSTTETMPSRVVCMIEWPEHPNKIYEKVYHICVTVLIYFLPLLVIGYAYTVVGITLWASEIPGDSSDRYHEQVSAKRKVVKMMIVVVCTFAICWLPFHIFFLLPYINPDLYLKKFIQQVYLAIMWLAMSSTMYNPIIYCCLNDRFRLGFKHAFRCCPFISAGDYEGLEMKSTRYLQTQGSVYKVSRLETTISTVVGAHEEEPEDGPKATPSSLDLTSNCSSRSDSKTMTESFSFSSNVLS

[9] = biological target: Sodium-dependent noradrenaline transporter (Homo sapiens, UniProt P23975); experiment: DRUGMATRIX: Norepinephrine Transporter radioligand binding (ligand: [125I] RTI-55); assay type: cell membranes, MDCK, Membrane; conditions: mdck; Not Active = under 50% inhibition at 10 µM
Sequence of Sodium-dependent noradrenaline transporter (P23975 whole entry): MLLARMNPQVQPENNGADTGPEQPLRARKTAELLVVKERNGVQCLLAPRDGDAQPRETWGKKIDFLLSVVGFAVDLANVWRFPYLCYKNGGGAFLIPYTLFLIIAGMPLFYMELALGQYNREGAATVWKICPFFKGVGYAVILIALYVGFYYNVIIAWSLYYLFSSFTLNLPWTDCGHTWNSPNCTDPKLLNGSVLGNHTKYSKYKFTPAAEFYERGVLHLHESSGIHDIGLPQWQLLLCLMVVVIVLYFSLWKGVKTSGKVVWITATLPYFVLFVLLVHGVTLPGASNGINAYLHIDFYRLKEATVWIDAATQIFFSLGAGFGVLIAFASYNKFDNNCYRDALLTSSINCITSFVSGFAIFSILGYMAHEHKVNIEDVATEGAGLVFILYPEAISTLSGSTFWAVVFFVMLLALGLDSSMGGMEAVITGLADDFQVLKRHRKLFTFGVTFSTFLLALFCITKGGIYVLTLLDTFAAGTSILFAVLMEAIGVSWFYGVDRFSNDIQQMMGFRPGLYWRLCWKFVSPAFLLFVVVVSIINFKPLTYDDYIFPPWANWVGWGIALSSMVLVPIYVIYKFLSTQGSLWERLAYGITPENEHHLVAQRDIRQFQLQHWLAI

Mu-type opioid receptor = Mu-type opioid receptor (Homo sapiens, UniProt P35372); experiment: DRUGMATRIX: Opiate mu (OP3, MOP) radioligand binding (ligand: [3H] Diprenorphine); assay type: cell membranes, CHO-K1, Membrane; conditions: cho-k1; Not Active = under 50% inhibition at 10 µM
Sequence of Mu-type opioid receptor (P35372 whole entry): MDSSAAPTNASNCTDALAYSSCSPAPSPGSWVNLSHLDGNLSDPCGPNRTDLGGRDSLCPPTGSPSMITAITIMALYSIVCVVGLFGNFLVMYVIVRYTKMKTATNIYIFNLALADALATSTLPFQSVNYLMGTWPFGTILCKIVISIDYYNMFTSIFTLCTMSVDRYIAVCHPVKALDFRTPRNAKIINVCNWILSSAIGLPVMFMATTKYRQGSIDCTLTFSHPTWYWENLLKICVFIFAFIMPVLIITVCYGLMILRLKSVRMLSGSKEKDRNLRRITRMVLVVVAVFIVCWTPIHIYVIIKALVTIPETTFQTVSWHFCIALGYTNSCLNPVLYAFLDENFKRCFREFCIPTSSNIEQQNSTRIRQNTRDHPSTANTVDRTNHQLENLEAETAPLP

Cytochrome P450 2E1 = Cytochrome P450 2E1 (Homo sapiens, UniProt P05181); conditions: bti-tn-5b1-4; also: in other assays of this panel Not Active means under 50% inhibition at 10 µM
Sequence of Cytochrome P450 2E1 (P05181 whole entry): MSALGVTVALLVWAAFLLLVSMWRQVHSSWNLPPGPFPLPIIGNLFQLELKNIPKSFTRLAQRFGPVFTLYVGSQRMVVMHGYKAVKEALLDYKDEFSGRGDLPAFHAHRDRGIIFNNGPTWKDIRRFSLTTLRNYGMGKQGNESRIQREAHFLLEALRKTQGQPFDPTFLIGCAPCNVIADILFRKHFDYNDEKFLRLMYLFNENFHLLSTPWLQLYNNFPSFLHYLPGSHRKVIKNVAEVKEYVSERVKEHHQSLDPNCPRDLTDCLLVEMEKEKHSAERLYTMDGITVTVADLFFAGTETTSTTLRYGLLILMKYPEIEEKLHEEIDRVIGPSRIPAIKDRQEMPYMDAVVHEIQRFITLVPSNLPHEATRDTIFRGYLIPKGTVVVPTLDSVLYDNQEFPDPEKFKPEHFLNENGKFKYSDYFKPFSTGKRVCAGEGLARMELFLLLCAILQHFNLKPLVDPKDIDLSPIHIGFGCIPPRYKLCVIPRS

[10] = DRUGMATRIX: Purinergic P2X radioligand binding (ligand: [3H] alpha, beta-Methylene-ATP); assay type: cell membranes, Oryctolagus cuniculus, New Zealand albino, Urinary bladder, Membrane; conditions: Not Active = under 50% inhibition at 10 µM

NNC(=O)c1ccncc1 [ISONIAZID]
Not Active: IC50 [1] | Ki [1] | IC50 [2] | Ki [2] | IC50 [3] | IC50 (Cannabinoid receptor 1) | IC50 [4] | IC50 [5] | IC50 (Caspase-1) | IC50 [6] | Ki [6] | IC50 [7] | Ki [7] | IC50 [8] | IC50 (Substance-P receptor) | IC50 [9] | IC50 (Mu-type opioid receptor) | IC50 (Cytochrome P450 2E1) | Ki (Cytochrome P450 2E1) | IC50 [10] | Ki [10]

Cc1ncc([N+](=O)[O-])n1CC(C)O (stereo not drawn) [SECNIDAZOLE]
Not Active: IC50 [1] | Ki [1] | IC50 [2] | Ki [2] | IC50 [3] | IC50 (Cannabinoid receptor 1) | IC50 [4] | IC50 [5] | IC50 (Caspase-1) | IC50 [6] | Ki [6] | IC50 [7] | Ki [7] | IC50 [8] | IC50 (Substance-P receptor) | IC50 [9] | IC50 (Mu-type opioid receptor) | IC50 (Cytochrome P450 2E1) | Ki (Cytochrome P450 2E1) | IC50 [10] | Ki [10]

COS(C)(=O)=O [METHANESULFONIC ACID METHYL ESTER]
Not Active: IC50 [1] | Ki [1] | IC50 [2] | Ki [2] | IC50 [3] | IC50 (Cannabinoid receptor 1) | IC50 [4] | IC50 [5] | IC50 (Caspase-1) | IC50 [6] | Ki [6] | IC50 [7] | Ki [7] | IC50 [8] | IC50 (Substance-P receptor) | IC50 [9] | IC50 (Mu-type opioid receptor) | IC50 (Cytochrome P450 2E1) | Ki (Cytochrome P450 2E1) | IC50 [10] | Ki [10]

CC(C)(C)NCC(O)c1ccc(O)c(CO)c1 (stereo not drawn) [ALBUTEROL]
Not Active: IC50 [1] | Ki [1] | IC50 [2] | Ki [2] | IC50 [3] | IC50 (Cannabinoid receptor 1) | IC50 [4] | IC50 [5] | IC50 (Caspase-1) | IC50 [6] | Ki [6] | IC50 [7] | Ki [7] | IC50 [8] | IC50 (Substance-P receptor) | IC50 [9] | IC50 (Mu-type opioid receptor) | IC50 (Cytochrome P450 2E1) | Ki (Cytochrome P450 2E1) | IC50 [10] | Ki [10]

Cc1ccc(C(=O)C(C)CN2CCCCC2)cc1 (stereo not drawn) [TOLPERISONE]
Not Active: IC50 [1] | Ki [1] | IC50 [2] | Ki [2] | IC50 [3] | IC50 (Cannabinoid receptor 1) | IC50 [4] | IC50 [5] | IC50 (Caspase-1) | IC50 [6] | Ki [6] | IC50 [7] | Ki [7] | IC50 [8] | IC50 (Substance-P receptor) | IC50 [9] | IC50 (Mu-type opioid receptor) | IC50 (Cytochrome P450 2E1) | Ki (Cytochrome P450 2E1) | IC50 [10] | Ki [10]

CN[C@H](CC(C)C)C(=O)N[C@H]1C(=O)N[C@@H](CC(N)=O)C(=O)N[C@H]2C(=O)N[C@H]3C(=O)N[C@H](C(=O)N[C@H](C(=O)O)c4cc(O)cc(O)c4-c4cc3ccc4O)[C@H](O)c3ccc(c(Cl)c3)Oc3cc2cc(c3O[C@@H]2O[C@H](CO)[C@@H](O)[C@H](O)[C@H]2O[C@H]2C[C@](C)(N)[C@H](O)[C@H](C)O2)Oc2ccc(cc2Cl)[C@H]1O [VANCOMYCIN]
Not Active: IC50 [1] | Ki [1] | IC50 [2] | Ki [2] | IC50 [3] | IC50 (Cannabinoid receptor 1) | IC50 [4] | IC50 [5] | IC50 (Caspase-1) | IC50 [6] | Ki [6] | IC50 [7] | Ki [7] | IC50 [8] | IC50 (Substance-P receptor) | IC50 [9] | IC50 (Mu-type opioid receptor) | IC50 (Cytochrome P450 2E1) | Ki (Cytochrome P450 2E1) | IC50 [10] | Ki [10]

CC(=O)[C@H]1CC[C@H]2[C@@H]3CCC4=CC(=O)CC[C@]4(C)[C@H]3CC[C@]12C [PROGESTERONE]
Not Active: IC50 [1] | Ki [1] | IC50 [2] | Ki [2] | IC50 [3] | IC50 (Cannabinoid receptor 1) | IC50 [4] | IC50 [5] | IC50 (Caspase-1) | IC50 [6] | Ki [6] | IC50 [7] | Ki [7] | IC50 [8] | IC50 (Substance-P receptor) | IC50 [9] | IC50 (Mu-type opioid receptor) | IC50 (Cytochrome P450 2E1) | Ki (Cytochrome P450 2E1) | IC50 [10] | Ki [10]

C[C@](N)(Cc1ccc(O)cc1)C(=O)O [METYROSINE]
Not Active: IC50 [1] | Ki [1] | IC50 [2] | Ki [2] | IC50 [3] | IC50 (Cannabinoid receptor 1) | IC50 [4] | IC50 [5] | IC50 (Caspase-1) | IC50 [6] | Ki [6] | IC50 [7] | Ki [7] | IC50 [8] | IC50 (Substance-P receptor) | IC50 [9] | IC50 (Mu-type opioid receptor) | IC50 (Cytochrome P450 2E1) | Ki (Cytochrome P450 2E1) | IC50 [10] | Ki [10]

Reference: ChEMBL document CHEMBL1909046, “DrugMatrix in vitro pharmacology data”
